Several values for one entry are separate records, joined by “and”; a condition that tells them apart may be missing. Equal entries are not always repeated. Where two headings read alike, the source gives them in different places.
Assays:
[1] = system: peroxidase; assay: Peroxidase assay in saliva (Amplex Red); assay type: biochemical
Experimental: To determine the effect of various GRAS compounds as inhibitors of peroxidase activity, a standard assay using Amplex® Red (Life Technologies), which releases a fluorescent oxidation product.
The test compounds, such as GRAS materials or cocktails of same, were prepared at a concentration of 500 ppm in distilled water. For the assay, 50 μl samples of test compounds were mixed with 20-30 μl of saliva (either “pooled” or “unpooled”) prior to the addition of Amplex® Red. […] Reactions were allowed to run for 30 minutes during these assays.

[2] = biological target: T1, α-amylase (Homo sapiens, UniProt P0DUB6); assay: α-Amylase inhibition saliva screening (chromogenic substrate, 405 nm); assay type: biochemical; conditions: for Ave (absorbance at 405 nm): average of 4 readings; for absorbance at 405 nm, single reading: test compound prepared at 5,000 ppm, 37° C.
T1 sequence (P0DUB6 16-511): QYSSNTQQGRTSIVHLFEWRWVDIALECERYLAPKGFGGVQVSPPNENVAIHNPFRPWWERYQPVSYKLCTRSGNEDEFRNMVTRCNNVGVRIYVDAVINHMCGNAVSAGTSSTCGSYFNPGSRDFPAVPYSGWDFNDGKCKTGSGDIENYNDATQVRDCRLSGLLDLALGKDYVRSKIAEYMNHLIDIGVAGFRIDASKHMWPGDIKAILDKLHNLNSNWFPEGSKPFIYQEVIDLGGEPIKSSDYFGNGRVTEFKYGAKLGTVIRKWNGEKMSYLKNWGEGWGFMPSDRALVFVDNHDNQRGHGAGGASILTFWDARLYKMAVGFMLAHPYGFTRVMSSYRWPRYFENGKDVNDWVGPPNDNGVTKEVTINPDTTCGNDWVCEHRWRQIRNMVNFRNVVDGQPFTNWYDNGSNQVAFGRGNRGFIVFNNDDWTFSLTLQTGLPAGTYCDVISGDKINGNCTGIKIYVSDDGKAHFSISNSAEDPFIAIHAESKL
Text: Further details of these five compounds may also be seen in Table 4.

[3] = system: protease; conditions: natural protease inhibitors; cited from earlier work
[4] = 500 ppm, pooled and unpooled saliva controls, 30 minutes, FIGS. 26-29

| Molecule | peroxidase inhibition [1, 4] | Ave (absorbance at 405 nm) ([2]; Time 0 min) | Ave (absorbance at 405 nm) ([2]; Time 5 min) | Ave (absorbance at 405 nm) ([2]; Time 15 min) | also measured |
| --- | --- | --- | --- | --- | --- |
| COc1ccc(O)c(C(C)(C)C)c1 [CDI-039, 3-tert--butyl-hydroxyanisole] | showed significant peroxidase inhibition capabilities | – | – | – | – |
| Cn1c(=O)c2c(ncn2C)n(C)c1=O [CDI #33, Caffeine] | showed significant peroxidase inhibition capabilities | – | – | – | – |
| O=C(O)c1ccccc1 [CDI #16, Benzoic acid] | – | – | – | – | peroxidase inhibition [1]: showed significant peroxidase inhibition capabilities |
| Aluminum potassium sulfate dodecahydrate [CDI-42] | showed significant peroxidase inhibition capabilities | 0.92 | 1.85 | 2.29 | absorbance at 405 nm, single reading ([2]; Time 0 min): 0.80 and 1.13 and 0.90 and 0.84; absorbance at 405 nm, single reading ([2]; Time 5 min): 1.65 and 2.15 and 1.80 and 1.81; absorbance at 405 nm, single reading ([2]; Time 15 min): 2.37 and 2.38 and 2.25 and 2.17 |
| Aluminum sulfate hydrate [CDI-34] | – | 0.40 | 0.50 | 0.56 | absorbance at 405 nm, single reading ([2]; Time 0 min, sulfate hydrate): 0.40 and 0.36 and 0.45; absorbance at 405 nm, single reading ([2]; Time 5 min, sulfate hydrate): 0.49 and 0.50 and 0.52; absorbance at 405 nm, single reading ([2]; Time 15 min, sulfate hydrate): 0.53 and 0.61 and 0.54 and 0.56 |
| Soybeans: primary soybean protease inhibitor, 20.7-22.3 kDa (protein, UniProt P01070 25-205, looked up) Trypsin inhibitor A: DFVLDNEGNPLENGGTYYILSDITAFGGIRAAPTGNERCPLTVVQSRNELDKGIGTIISSPYRIRFIAEGHPLSLKFDSFAVIMLCVGIPTEWSVVEDLPEGPAVKIGENKDAMDGWFRLERVSDDEFNNYKLVFCPQQAEDDKCGDIGISIDHDDGTRRLVVSKNKPLVVQFQKLDKESL | – | – | – | – | Inhibitory power [3]: 1.2 times times weight |

Reference: patent US20110195427A1, “SYSTEMS AND METHODS FOR DETECTING PREGNANCY” (priority 2010, published 2011)
